Laboratory results reported in ChEMBL document CHEMBL4270599, “Synthesis of a 3'-C-ethynyl-β-d-ribofuranose purine nucleoside library: Discovery of C7-deazapurine analogs as potent antiproliferative nucleosides” (Eur J Med Chem, 2018).

What was measured:
Format in all cases: functional
[1] = system: COLO 205; experiment: Growth inhibition of human COLO205 cells assessed as cell growth at 10^-8 M incubated for 48 hrs by sulforhodamine B assay relative to control; settings: COLO 205, 48 h, read-out: Activity
[2] = system: SF-295; experiment: Growth inhibition of human SF295 cells assessed as cell growth at 10^-8 M incubated for 48 hrs by sulforhodamine B assay relative to control; settings: SF-295, 48 h, read-out: Activity
[3] = system: Hs-578T; experiment: Growth inhibition of human Hs 578T cells assessed as cell growth at 10^-7 M incubated for 48 hrs by sulforhodamine B assay relative to control; settings: read-out: Activity
[4] = system: NCI-H460; experiment: Cytotoxicity against human NCI-H460 cells after 48 hrs by SRB assay; settings: NCI-H460, 48 h; for CC50: read-out: LC50 (the source's name)
[5] = system: SR; experiment: Growth inhibition of human SR cells assessed as cell growth at 10^-7 M incubated for 48 hrs by sulforhodamine B assay relative to control; settings: read-out: Activity
[6] = system: HOP-92; experiment: Growth inhibition of human HOP92 cells assessed as cell growth at 10^-8 M incubated for 48 hrs by sulforhodamine B assay relative to control; settings: HOP-92, 48 h, read-out: Activity
[7] = system: MDA-MB-468; experiment: Cytotoxicity against human MDA-MB-468 cells after 48 hrs by SRB assay; settings: MDA-MB-468, 48 h; for CC50: read-out: pLC50 (the source's name) (converted)
[8] = system: U-251; experiment: Growth inhibition of human U251 cells assessed as cell growth at 10^-5 M incubated for 48 hrs by sulforhodamine B assay relative to control; settings: U-251, 48 h, read-out: Activity
[9] = system: KM12; experiment: Growth inhibition of human KM12 cells assessed as cell growth at 10^-8 M incubated for 48 hrs by sulforhodamine B assay relative to control; settings: KM12, 48 h, read-out: Activity
[10] = system: IGROV-1; experiment: Cytotoxicity against human IGROV1 cells after 48 hrs by SRB assay; settings: IGROV-1, 48 h
[11] = system: NCI-H460; experiment: Growth inhibition of human NCI-H460 cells assessed as cell growth at 10^-8 M incubated for 48 hrs by sulforhodamine B assay relative to control; settings: NCI-H460, 48 h, read-out: Activity
[12] = system: OVCAR-8; experiment: Growth inhibition of human OVCAR8 cells assessed as cell growth at 10^-7 M incubated for 48 hrs by sulforhodamine B assay relative to control; settings: OVCAR-8, 48 h, read-out: Activity
[13] = system: SNB-19; experiment: Growth inhibition of human SNB19 cells assessed as cell growth at 10^-7 M incubated for 48 hrs by sulforhodamine B assay relative to control; settings: SNB-19, 48 h, read-out: Activity
[14] = system: IGROV-1; experiment: Growth inhibition of human IGROV1 cells assessed as cell growth at 10^-7 M incubated for 48 hrs by sulforhodamine B assay relative to control; settings: IGROV-1, 48 h, read-out: Activity
[15] = system: HCT-15; experiment: Growth inhibition of human HCT15 cells assessed as cell growth at 10^-4 M incubated for 48 hrs by sulforhodamine B assay relative to control; settings: HCT-15, 48 h, read-out: Activity
[16] = system: HL-60(TB); experiment: Growth inhibition of human HL-60(TB) cells assessed as cell growth at 10^-8 M incubated for 48 hrs by sulforhodamine B assay relative to control; settings: HL-60, 48 h, read-out: Activity
[17] = system: SNB-75; experiment: Growth inhibition of human SNB75 cells assessed as cell growth at 10^-7 M incubated for 48 hrs by sulforhodamine B assay relative to control; settings: SNB-75, 48 h, read-out: Activity
[18] = system: RXF 393; experiment: Growth inhibition of human RXF393 cells assessed as cell growth at 10^-7 M incubated for 48 hrs by sulforhodamine B assay relative to control; settings: RXF 393, 48 h, read-out: Activity
[19] = system: LOX IMVI; experiment: Growth inhibition of human LOXIMVI cells assessed as cell growth at 10^-7 M incubated for 48 hrs by sulforhodamine B assay relative to control; settings: read-out: Activity
[20] = system: MCF7; experiment: Cytotoxicity against human MCF7 cells after 48 hrs by SRB assay; settings: MCF7, 48 h; for CC50: read-out: LC50 (the source's name)
[21] = system: MDA-MB-231; experiment: Growth inhibition of human MDA-MB-231 cells assessed as cell growth at 10^-6 M incubated for 48 hrs by sulforhodamine B assay relative to control; settings: MDA-MB-231, 48 h, read-out: Activity
[22] = system: HT-29; experiment: Growth inhibition of human HT-29 cells assessed as cell growth at 10^-6 M incubated for 48 hrs by sulforhodamine B assay relative to control; settings: HT-29, 48 h, read-out: Activity
[23] = system: HT-29; experiment: Cytotoxicity against human HT-29 cells after 48 hrs by SRB assay; settings: HT-29, 48 h
[24] = system: K562; experiment: Growth inhibition of human K562 cells assessed as cell growth at 10^-7 M incubated for 48 hrs by sulforhodamine B assay relative to control; settings: K562, 48 h, read-out: Activity
[25] = system: MDA-MB-231; experiment: Growth inhibition of human MDA-MB-231 cells assessed as cell growth at 10^-8 M incubated for 48 hrs by sulforhodamine B assay relative to control; settings: MDA-MB-231, 48 h, read-out: Activity
[26] = system: NCI-H23; experiment: Cytotoxicity against human NCI-H23 cells after 48 hrs by SRB assay; settings: NCI-H23, 48 h; for CC50: read-out: pLC50 (the source's name) (converted)
[27] = system: K562; experiment: Growth inhibition of human K562 cells assessed as cell growth at 10^-8 M incubated for 48 hrs by sulforhodamine B assay relative to control; settings: K562, 48 h, read-out: Activity
[28] = system: NCI-H226; experiment: Growth inhibition of human NCI-H226 cells assessed as cell growth at 10^-4 M incubated for 48 hrs by sulforhodamine B assay relative to control; settings: NCI-H226, 48 h, read-out: Activity
[29] = system: LOX IMVI; experiment: Cytotoxicity against human LOXIMVI cells after 48 hrs by SRB assay
[30] = system: SN12C; experiment: Growth inhibition of human SN12C cells assessed as cell growth at 10^-5 M incubated for 48 hrs by sulforhodamine B assay relative to control; settings: read-out: Activity
[31] = system: U-251; experiment: Cytotoxicity against human U251 cells after 48 hrs by SRB assay; settings: U-251, 48 h
[32] = system: NCI-H23; experiment: Growth inhibition of human NCI-H23 cells assessed as cell growth at 10^-7 M incubated for 48 hrs by sulforhodamine B assay relative to control; settings: NCI-H23, 48 h, read-out: Activity
[33] = read-out: LC50 (the source's name)
[34] = read-out: pLC50 (the source's name) (converted)

`C#C[C@@]1(O)[C@@H](CO)O[C@@H](n2cc(F)c3c(N)ncnc32)[C@@H]1O` gave a growth at 0.01 µM [1] of 101%, a growth at 0.01 µM [2] of 98% and a growth at 0.1 µM [3] of 106%. It also gave a CC50 [4] greater than 100000 nM, a TGI ([4]; read-out: TGI) of 10200 nM and a GI50 ([4]; read-out: pGI50 (converted)) of 229 nM. The TGI ([4]; read-out: pTGI (converted)) was 10200 nM, the growth at 0.1 µM [5] was 65% and the growth at 0.01 µM [6] was 121%. For the same compound, the TGI ([7]; read-out: TGI) was 1530 nM, the GI50 ([7]; read-out: pGI50 (converted)) was 302 nM and the CC50 [7] was 7940 nM. It also gave a TGI ([7]; read-out: pTGI (converted)) of 1550 nM, a growth at 10 µM [8] of 1% and a growth at 0.01 µM [9] of 104%. The CC50 [10, 33] was greater than 100000 nM, the TGI ([10]; read-out: TGI) was 1420 nM and the GI50 ([10]; read-out: pGI50 (converted)) was 324 nM. The TGI ([10]; read-out: pTGI (converted)) was 1410 nM, the growth at 0.01 µM [11] was 100% and the growth at 0.1 µM [12] was 74%. The growth at 0.1 µM [13] was 79%, the growth at 0.1 µM [14] was 96% and the growth at 100 µM [15] was -33%. For the same compound, the growth at 0.01 µM [16] was 93%, the growth at 0.1 µM [17] was 107% and the growth at 0.1 µM [18] was 102%. The growth at 0.1 µM [19] was 87%, the CC50 [20] was greater than 100000 nM and the GI50 ([20]; read-out: pGI50 (converted)) was 102 nM. For the same compound, the growth at 1 µM [21] was 22%, the growth at 1 µM [22] was 11% and the TGI ([23]; read-out: TGI) was greater than 100000 nM. For the same compound, the GI50 ([23]; read-out: pGI50 (converted)) was 209 nM, the CC50 [23, 34] was greater than 100000 nM and the TGI ([23]; read-out: pTGI (converted)) was greater than 100000 nM. For the same compound, the growth at 0.1 µM [24] was 78%, the growth at 0.01 µM [25] was 99% and the TGI ([26]; read-out: TGI) was 6850 nM. It also gave a GI50 ([26]; read-out: pGI50 (converted)) of 398 nM, a CC50 [26] greater than 100000 nM and a TGI ([26]; read-out: pTGI (converted)) of 6920 nM. It also gave a growth at 0.01 µM [27] of 100%, a growth at 100 µM [28] of -45% and a TGI ([29]; read-out: TGI) of 1110 nM. It also gave a GI50 ([29]; read-out: pGI50 (converted)) of 282 nM, a CC50 [29, 34] of 4570 nM and a TGI ([29]; read-out: pTGI (converted)) of 1120 nM. For the same compound, the growth at 10 µM [30] was -8%, the GI50 ([31]; read-out: GI50) was 631 nM and the TGI ([31]; read-out: TGI) was 11600 nM. The GI50 ([31]; read-out: pGI50 (converted)) was 631 nM, the CC50 [31, 34] was greater than 100000 nM and the TGI ([31]; read-out: pTGI (converted)) was 11700 nM. It also gave a growth at 0.1 µM [32] of 91%.
`C#C[C@@]1(O)[C@@H](CO)O[C@@H](n2cc(Br)c3c(N)ncnc32)[C@@H]1O` was tested, and the growth at 0.01 µM [1] was 95 to 97%, the growth at 0.01 µM [2] was 90 to 96% and the growth at 0.1 µM [3] was 92 to 97%. It also gave a GI50 ([4]; read-out: GI50) of 17.1 to 50 nM, a CC50 [4] greater than 100000 nM and a TGI ([4]; read-out: TGI) of 1540 to 5270 nM. It also gave a growth at 0.1 µM [5] of 20 to 46%, a growth at 0.01 µM [6] of 90 to 94% and a GI50 ([7]; read-out: GI50) of 115 to 219 nM. For the same compound, the TGI ([7]; read-out: TGI) was 352 to 637 nM, the CC50 [7] was 1910 nM and the growth at 0.01 µM [9] was 91 to 95%. The GI50 ([10]; read-out: GI50) was 27.8 to 69.9 nM, the TGI ([10]; read-out: TGI) was 485 nM and the CC50 [10, 34] was greater than 100000 nM. It also gave a TGI ([10]; read-out: pTGI (converted)) of 490 nM, a growth at 0.01 µM [11] of 63 to 104% and a growth at 0.1 µM [12] of 28 to 43%. For the same compound, the growth at 0.1 µM [13] was 6 to 71%, the growth at 0.1 µM [14] was 11 to 43% and the growth at 100 µM [15] was 1 to 4%. It also gave a growth at 0.01 µM [16] of 81 to 82%, a growth at 0.1 µM [17] of 81 to 96% and a growth at 0.1 µM [18] of 81 to 103%. It also gave a growth at 0.1 µM [19] of 20 to 52%, a GI50 ([20]; read-out: GI50) of 16 to 30.7 nM and a CC50 [20] greater than 100000 nM. The TGI ([20]; read-out: TGI) was 1190 to 1810 nM, the growth at 1 µM [21] was 2 to 8% and the growth at 1 µM [22] was 5 to 8%. It also gave a GI50 ([23]; read-out: GI50) of 25.8 to 55.9 nM, a CC50 [23, 33] greater than 100000 nM and a TGI ([23]; read-out: TGI) greater than 100000 nM. For the same compound, the TGI ([23]; read-out: pTGI (converted)) was greater than 100000 nM, the growth at 0.1 µM [24] was 27 to 48% and the growth at 0.01 µM [25] was 90 to 104%. For the same compound, the GI50 ([26]; read-out: GI50) was 162 to 225 nM, the TGI ([26]; read-out: TGI) was 1930 to 4210 nM and the CC50 [26] was greater than 100000 nM. The growth at 0.01 µM [27] was 87 to 99%, the growth at 100 µM [28] was 23% and the GI50 ([29]; read-out: GI50) was 29 to 105 nM. For the same compound, the CC50 [29, 33] was 720 to 2130 nM, the TGI ([29]; read-out: TGI) was 176 to 351 nM and the growth at 10 µM [30] was 1 to 3%. The GI50 ([31]; read-out: GI50) was 13.2 to 30.9 nM, the CC50 [31, 33] was greater than 100000 nM and the growth at 0.1 µM [32] was 61 to 70%.
